Experimental data: patent US20240300932A1, “N-PHENYLIMINE DERIVATIVE AND PREPARATION METHOD AND USE THEREOF” (Guizhou University, priority 2023, published 2024)

Columns and labels:
Test in all cases: Post-emergence herbicidal activity test (stem and leaf spray, pot culture)
Format in all cases: in vivo
Settings in all cases: 3 weeks after spraying
[1] = tested on: Abutilon theophrasti
Procedure, shortened: (§1)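 Graded 0–5 on fresh-weight growth control rate 3 weeks after a single spray-tower application at 10, 5 or 2.5 g/mu. Compounds in acetone with Tween 80 and methyl oleate synergist (1.5 liters/ha), applied to greenhouse weeds at 2- to 3-leaf stage.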

[2] = tested on: Amaranthus retroflexus
Procedure, shortened: as §1

[3] = tested on: Echinochloa crusgalli
Procedure, shortened: as §1

[4] = tested on: Portulaca oleracea
Procedure, shortened: as §1

[5] = tested on: Setaria viridis
Procedure, shortened: as §1

[6] = tested on: Trifoliumre pensL.
Procedure, shortened: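 Pot-grown weeds in loam (pH 7), greenhouse at 20–30 °C, sprayed once post-emergence at the 2–3-leaf stage. Compound in acetone with Tween 80 plus methyl oleate oil (1.5 L/ha), applied at 10, 5 and 2.5 g/mu by spray tower. Effect scored 3 weeks after spraying, averaged over three repeats.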

| Compound | Post-emergence herbicidal activity, A. theophrasti (grade) ([1]; dosage 2.5 g/mu) | Post-emergence herbicidal activity, A. theophrasti (grade) ([1]; dosage 5 g/mu) | Post-emergence herbicidal activity, A. theophrasti (grade) ([1]; dosage 10 g/mu) | Post-emergence herbicidal activity, A. retroflexus (grade) ([2]; dosage 2.5 g/mu) | Post-emergence herbicidal activity, A. retroflexus (grade) ([2]; dosage 5 g/mu) | Post-emergence herbicidal activity, A. retroflexus (grade) ([2]; dosage 10 g/mu) | Post-emergence herbicidal activity, E. crusgalli (grade) ([3]; dosage 2.5 g/mu) | Post-emergence herbicidal activity, E. crusgalli (grade) ([3]; dosage 5 g/mu) | Post-emergence herbicidal activity, E. crusgalli (grade) ([3]; dosage 10 g/mu) | Post-emergence herbicidal activity, P. oleracea (grade) ([4]; dosage 2.5 g/mu) | Post-emergence herbicidal activity, P. oleracea (grade) ([4]; dosage 5 g/mu) | Post-emergence herbicidal activity, P. oleracea (grade) ([4]; dosage 10 g/mu) | Post-emergence herbicidal activity, S. viridis (grade) ([5]; dosage 2.5 g/mu) | Post-emergence herbicidal activity, S. viridis (grade) ([5]; dosage 5 g/mu) | Post-emergence herbicidal activity, S. viridis (grade) ([5]; dosage 10 g/mu) | Post-emergence herbicidal activity, Trifoliumre pensL. (grade) ([6]; dosage 2.5 g/mu) | Post-emergence herbicidal activity, Trifoliumre pensL. (grade) ([6]; dosage 5 g/mu) | Post-emergence herbicidal activity, Trifoliumre pensL. (grade) ([6]; dosage 10 g/mu) |
| --- | --- | --- | --- | --- | --- | --- | --- | --- | --- | --- | --- | --- | --- | --- | --- | --- | --- | --- |
| O=C1C2=C(CCCC2)C(=O)N1c1cc(OCc2nnc(-c3ccc([N+](=O)[O-])cc3F)o2)c(Cl)cc1F [Compound B20] | 5 (Grade 5: the growth control rate is greater than or equal to 85%) | 5 (Grade 5: the growth control rate is greater than or equal to 85%) | 5 (Grade 5: the growth control rate is greater than or equal to 85%) | 4 (Grade 4: the growth control rate is greater than or equal to 60% and less than 85%) | 5 (Grade 5: the growth control rate is greater than or equal to 85%) | 5 (Grade 5: the growth control rate is greater than or equal to 85%) | 1 (Grade 1: the growth control rate is greater than or equal to 5% and less than 20%) | 2 (Grade 2: the growth control rate is greater than or equal to 20% and less than 40%) | 3 (Grade 3: the growth control rate is greater than or equal to 40% and less than 60%) | 5 (Grade 5: the growth control rate is greater than or equal to 85%) | 5 (Grade 5: the growth control rate is greater than or equal to 85%) | 5 (Grade 5: the growth control rate is greater than or equal to 85%) | 2 (Grade 2: the growth control rate is greater than or equal to 20% and less than 40%) | 3 (Grade 3: the growth control rate is greater than or equal to 40% and less than 60%) | 4 (Grade 4: the growth control rate is greater than or equal to 60% and less than 85%) | 4 (Grade 4: the growth control rate is greater than or equal to 60% and less than 85%) | 5 (Grade 5: the growth control rate is greater than or equal to 85%) | 5 (Grade 5: the growth control rate is greater than or equal to 85%) |
| COc1ccccc1C(=O)COc1cc(N2C(=O)C3=C(CCCC3)C2=O)c(F)cc1Cl [Compound C6, 2-(4-chloro-2-fluoro-5-(2-oxo-2-(2-methoxyphenyl)ethoxy)phenyl)-4,5,6,7-tetrahydro-1H-isoindole-1,3(2H)-dione] | 5 (Grade 5: the growth control rate is greater than or equal to 85%) | 5 (Grade 5: the growth control rate is greater than or equal to 85%) | 5 (Grade 5: the growth control rate is greater than or equal to 85%) | 5 (Grade 5: the growth control rate is greater than or equal to 85%) | 5 (Grade 5: the growth control rate is greater than or equal to 85%) | 5 (Grade 5: the growth control rate is greater than or equal to 85%) | 1 (Grade 1: the growth control rate is greater than or equal to 5% and less than 20%) | 2 (Grade 2: the growth control rate is greater than or equal to 20% and less than 40%) | 3 (Grade 3: the growth control rate is greater than or equal to 40% and less than 60%) | 5 (Grade 5: the growth control rate is greater than or equal to 85%) | 5 (Grade 5: the growth control rate is greater than or equal to 85%) | 5 (Grade 5: the growth control rate is greater than or equal to 85%) | 2 (Grade 2: the growth control rate is greater than or equal to 20% and less than 40%) | 3 (Grade 3: the growth control rate is greater than or equal to 40% and less than 60%) | 4 (Grade 4: the growth control rate is greater than or equal to 60% and less than 85%) | 5 (Grade 5: the growth control rate is greater than or equal to 85%) | 5 (Grade 5: the growth control rate is greater than or equal to 85%) | 5 (Grade 5: the growth control rate is greater than or equal to 85%) |
| O=C(COc1cc(N2C(=O)C3=C(CCCC3)C2=O)c(F)cc1Cl)c1cccc(F)c1 [Compound C7, 2-(4-chloro-2-fluoro-5-(2-oxo-2-(3-fluorophenyl)ethoxy)phenyl)-4,5,6,7-tetrahydro-1H-isoindole-1,3(2H)-dione] | 5 (Grade 5: the growth control rate is greater than or equal to 85%) | 5 (Grade 5: the growth control rate is greater than or equal to 85%) | 5 (Grade 5: the growth control rate is greater than or equal to 85%) | 5 (Grade 5: the growth control rate is greater than or equal to 85%) | 5 (Grade 5: the growth control rate is greater than or equal to 85%) | 5 (Grade 5: the growth control rate is greater than or equal to 85%) | 1 (Grade 1: the growth control rate is greater than or equal to 5% and less than 20%) | 2 (Grade 2: the growth control rate is greater than or equal to 20% and less than 40%) | 3 (Grade 3: the growth control rate is greater than or equal to 40% and less than 60%) | 5 (Grade 5: the growth control rate is greater than or equal to 85%) | 5 (Grade 5: the growth control rate is greater than or equal to 85%) | 5 (Grade 5: the growth control rate is greater than or equal to 85%) | 2 (Grade 2: the growth control rate is greater than or equal to 20% and less than 40%) | 3 (Grade 3: the growth control rate is greater than or equal to 40% and less than 60%) | 4 (Grade 4: the growth control rate is greater than or equal to 60% and less than 85%) | 5 (Grade 5: the growth control rate is greater than or equal to 85%) | 5 (Grade 5: the growth control rate is greater than or equal to 85%) | 5 (Grade 5: the growth control rate is greater than or equal to 85%) |
| O=C(CCl)Nc1cc(N2C(=O)C3=C(CCCC3)C2=O)c(F)cc1Cl [Compound D2, 2-chloro-N-(2-chloro-5-(1,3-dioxo-1,3,4,5,6,7-hexahydro-2H-isoindole-2-yl)-4-fluorophenyl)acetamide] | – | – | 5 (Grade 5: the growth control rate is greater than or equal to 85%) | – | – | 5 (Grade 5: the growth control rate is greater than or equal to 85%) | – | – | 3 (Grade 3: the growth control rate is greater than or equal to 40% and less than 60%) | – | – | 5 (Grade 5: the growth control rate is greater than or equal to 85%) | – | – | 3 (Grade 3: the growth control rate is greater than or equal to 40% and less than 60%) | – | – | 5 (Grade 5: the growth control rate is greater than or equal to 85%) |
| CC(Br)C(=O)Nc1cc(N2C(=O)C3=C(CCCC3)C2=O)c(F)cc1Cl (stereo not drawn) [Compound D3, 2-bromo-N-(2-chloro-5-(1,3-dioxo-1,3,4,5,6,7-hexahydro-2H-isoindol-2-yl)-4-fluorophenyl)propionamide] | – | – | 5 (Grade 5: the growth control rate is greater than or equal to 85%) | – | – | 5 (Grade 5: the growth control rate is greater than or equal to 85%) | – | – | 3 (Grade 3: the growth control rate is greater than or equal to 40% and less than 60%) | – | – | 5 (Grade 5: the growth control rate is greater than or equal to 85%) | – | – | 3 (Grade 3: the growth control rate is greater than or equal to 40% and less than 60%) | – | – | 5 (Grade 5: the growth control rate is greater than or equal to 85%) |
| CC(C)(CCl)C(=O)Nc1cc(N2C(=O)C3=C(CCCC3)C2=O)c(F)cc1Cl [Compound D4, 3-chloro-N-(2-chloro-5-(1,3-dioxo-1,3,4,5,6,7-hexahydro-2H-isoindole-2-yl)-4-fluorophenyl)-2,2-dimethylpropionamide] | – | – | 5 (Grade 5: the growth control rate is greater than or equal to 85%) | – | – | 5 (Grade 5: the growth control rate is greater than or equal to 85%) | – | – | 3 (Grade 3: the growth control rate is greater than or equal to 40% and less than 60%) | – | – | 5 (Grade 5: the growth control rate is greater than or equal to 85%) | – | – | 3 (Grade 3: the growth control rate is greater than or equal to 40% and less than 60%) | – | – | 5 (Grade 5: the growth control rate is greater than or equal to 85%) |
